Laboratory results as given in ChEMBL document CHEMBL1134498, “Experimental and computational screening models for the prediction of intestinal drug absorption” (J Med Chem, 2001).
Where a SMILES comes first, the peptide text is derived from it.

What was measured:
Homo sapiens = species on record: Homo sapiens; assay: Ratio of [(apical to basal)/(basal to apical)] (Caco-2 cell monolayer); type: ADME
[1] = Apparent permeability coefficient (Papp) (Caco-2 cell monolayer); type: ADME, cell-based; conditions: human
[2] = Cellular permeability (Pc) (Caco-2 cell monolayer); type: ADME; conditions: human, read-out: Pc

Structure (SMILES)	Ratio (Homo sapiens)	Papp [1] [×10⁻⁶ cm/s]	Papp [2] [×10⁻⁶ cm/s]
CCCc1nn(C)c2c(=O)[nH]c(-c3cc(S(=O)(=O)N4CCN(C)CC4)ccc3OCC)nc12	0.83	48	87
C[C@H](NC(=O)[C@@H](N)Cc1ccc(O)cc1)C(=O)N[C@@H](Cc1ccccc1)C(=O)N[C@@H](Cc1ccccc1)C(N)=O (H-YAFF-NH2)	–	0.04	0.022
NC(=O)[C@H](Cc1ccccc1)NC(=O)[C@H](Cc1ccccc1)NC(=O)[C@H](CCCN=C(N)N)NC(=O)[C@@H](N)Cc1ccc(O)cc1 (H-YRFF-NH2)	0.41	0.037	0.023
C=CCc1ccccc1OCC(O)CNC(C)C (stereo unspecified) [ALPRENOLOL]	~ 1	88	–
N=C(N)NC(=O)c1nc(Cl)c(N)nc1N [AMILORIDE]	–	0.56	0.78
Cc1cc(=O)n(-c2ccccc2)n1C [ANTIPYRINE]	1.1	77	215
CN/C(=N/CCSCc1nc[nH]c1C)NC#N [CIMETIDINE]	1.8	1.23	1.2
O=C(O)P(=O)(O)O [FOSCARNET]	0.65	0.045	0.05
OC[C@H]1O[C@@H](O[C@@H]2[C@@H](CO)O[C@](O)(CO)[C@H]2O)[C@H](O)[C@@H](O)[C@H]1O [LACTULOSE]	1.4	0.3	0.27
OC[C@@H](O)[C@@H](O)[C@H](O)[C@H](O)CO [MANNITOL]	0.89	0.11	0.19
Cc1ccccc1N1C(=O)c2cc(S(N)(=O)=O)c(Cl)cc2NC1C (stereo unspecified) [METOLAZONE]	0.64	6.2	6.1
COCCc1ccc(OCC(O)CNC(C)C)cc1 (stereo unspecified) [METOPROLOL]	1	64	–
C=CCOc1ccccc1OCC(O)CNC(C)C (stereo unspecified) [OXPRENOLOL]	~ 1	61	–
CC(C)NCC(O)COc1cccc2[nH]ccc12 (stereo unspecified) [PINDOLOL]	~ 1	36	–
CC(=O)Nc1ccc(OCC(O)CNC(C)C)cc1 (stereo unspecified) [PRACTOLOL]	~ 1	1.8	–
OC[C@H]1O[C@H](OC[C@H]2O[C@H](O[C@]3(CO)O[C@H](CO)[C@@H](O)[C@@H]3O)[C@H](O)[C@@H](O)[C@@H]2O)[C@H](O)[C@@H](O)[C@H]1O [RAFFINOSE]	1.2	0.051	0.047
O=C(O)c1cc(/N=N/c2ccc(S(=O)(=O)Nc3ccccn3)cc2)ccc1O [SULFASALAZINE]	0.087	0.16	0.16
CCN1CCCC1CNC(=O)c1cc(S(N)(=O)=O)ccc1OC (stereo unspecified) [SULPIRIDE]	–	0.23	0.39
